Experimental findings from EPA's ToxValDB 9.5 (doi:10.2903/j.efsa.2009.194r) are described below.

One data set deals with Apis mellifera. The note with it: acute; duration: 48 hours; dermal; mortality.
A further data set relates to Daphnia magna. The note with it: chronic/long-term; duration: 21 days; reproduction.
For a further data set, the system named is Lepomis macrochirus. The note with it: acute; duration: 96 hours; mortality.
The next data set concerns Pimephales promelas. The note with it: chronic/long-term; duration: 36 days; growth.
The next data set concerns Typhlodromus pyri. The note with it: chronic/long-term.
The next data set concerns Rattus norvegicus. The note with it: for NOAEL: hematological.
The subject of the next data set is Tagia sp. The note with it: acute; duration: 14 days; mortality.
The test system of a further data set is Canidae. The note with it: chronic; duration: 1 years; oral; Dog Other; hematological.
For another data set, the system named is Colinus virginianus. The note with it: for LD50: acute, oral, mortality.
The next data set relates to Aphidius rhopalosiphi. The note with it: chronic/long-term.

Broadly, the NOAEL is the highest tested level that showed no adverse finding.

A value given as a limit tells only on which side of the number the result lay.

As for `O=C(NC(=O)c1ccccc1Cl)Nc1ccc(OC(F)(F)F)cc1` [Triflumuron], the LD50 was over 200 µg/piece in the data set with Apis mellifera; over 5000 mg/kg-day in the data set on Rattus norvegicus (acute, oral, mortality); over 805 mg/kg-day with Colinus virginianus (diet); 561 mg/kg-day in the data set on Colinus virginianus. Moreover, the NOEC was 3.2e-05 mg/L with Daphnia magna, at least 0.0228 mg/L with Pimephales promelas, 142 mg/kg-day in the data set on Rattus norvegicus (chronic) and 1.65 mg/kg-day in the data set on Colinus virginianus (reproduction developmental). In addition, the LC50 in the data set with Lepomis macrochirus is over 0.0208 µg/mL; in the data set on Tagia sp., over 500 mg/kg. The LEL in the data set with Typhlodromus pyri (duration: 7 days, mortality) was determined as 384 g/ha; in the data set with Typhlodromus pyri (reproduction), 384 g/ha; in the data set with Aphidius rhopalosiphi (mortality), 300 g/ha; in the data set on Aphidius rhopalosiphi (reproduction), 300 g/ha. Besides, the NOAEL in the data set with Rattus norvegicus (chronic, duration: 2 years) is 0.82 mg/kg-day; in the data set on Rattus norvegicus (subchronic, duration: 90 days, oral), 3.6 mg/kg-day; in the data set with Canidae, 1.42 mg/kg-day.
